# Source: US10131652B2, “Pyrimidinyloxy benzene derivatives as herbicides” (E. I. DU PONT DE NEMOURS AND COMPANY, priority 2014, dated 2018)
# Where two headings read alike, the source gives them in different places.
# Key:
# Assay type in all cases: in vivo
# [1] = test system: barnyardgrass (Echinochloa crus-galli); assay: Test B pre-/postemergence plant response; details: for pest or weed control at 31 g/ha: 31 g ai/ha
# Summary of the method: (§1)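 Ratings reflect visual injury versus untreated controls, from 0 for no effect to 100 for complete control, assessed roughly 10 days after treatment. Formulation: non-phytotoxic solvent mix with surfactant; pre- and postemergence sprays on plants grown in loam soil and sand.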
# [2] = test system: corn (Zea mays); assay: Test B pre-/postemergence plant response; details: Zea mays, post-emergence, 240 h
# Summary of the method: as §1
# [3] = test system: giant foxtail (Setaria faberii); assay: Test B pre-/postemergence plant response; details: for pest or weed control at 31 g/ha: 31 g ai/ha
# Summary of the method: as §1
# [4] = test system: pigweed (Amaranthus retroflexus); assay: Test B pre-/postemergence plant response; details: for pest or weed control at 31 g/ha: 31 g ai/ha
# Summary of the method: as §1
# [5] = test system: wheat (Triticum aestivum); assay: Test B pre-/postemergence plant response; details: Triticum aestivum, post-emergence, 240 h, read-out: Plant response rating, Wheat
# Summary of the method: as §1
# [6] = test system: Italian ryegrass (Lolium multiflorum); assay: Test D pre-/postemergence plant response; details: Lolium multiflorum; for pest or weed control at 31 g/ha: 31 g ai/ha; for pest or weed control at 62 g/ha: 62 g ai/ha; for pest or weed control at 125 g/ha: 125 g ai/ha
# From the text: (§2) Seeds of plant species selected from blackgrass (Alopecurus myosuroides), Italian ryegrass (Lolium multiflorum), winter wheat (Triticum aestivum), galium (catchweed bedstraw, Galium aparine), corn (Zea mays), large (Lg) crabgrass (Digitaria sanguinalis), giant foxtail (Setaria faberii), johnsongrass (Sorghum halepense), lambsquarters (Chenopodium album), morningglory (Ipomoea coccinea), yellow nutsedge (Cyperus esculentus), pigweed (Amaranthus retroflexus), ragweed (common ragweed, Ambrosia elatior), soybean (Glycine max), bamyardgrass (Echinochloa crus-galli), oilseed rape (Brassica napus), waterhemp (common waterhemp, Amaranthus rudis), and velvetleaf (Abutilon theophrasti) were planted into a blend of loam soil and sand and treated preemergence with test chemicals formulated in a non-phytotoxic solvent mixture which included a surfactant. At the same time, plants selected from these crop and weed species and also kochia (Kochia scoparia), wild oat (Avena fatua), and chickweed (common chickweed, Stellaria media) were planted in pots containing Redi-Earth® planting medium (Scotts Company, 14111 Scottslawn Road, Marysville, Ohio 43041) comprising spaghnum peat moss, vermiculite, wetting agent and starter nutrients and treated with postemergence applications of test chemicals formulated in the same manner. Plants ranged in height from 2 to 18 cm (1- to 4-leaf stage) for postemergence treatments. Treated plants and controls were maintained in a greenhouse for 13 to 15 days, after which time all species were compared to controls and visually evaluated. Plant response ratings, summarized in Table D, are based on a scale of 0 to 100 where 0 is no effect and 100 is complete control. A dash (-) response means no test result.
# [7] = test system: barnyardgrass (Echinochloa crus-galli); assay: Test D pre-/postemergence plant response; details: Echinochloa crus-galli; for pest or weed control at 16 g/ha: 16 g ai/ha; for pest or weed control at 31 g/ha: 31 g ai/ha; for pest or weed control at 62 g/ha: 62 g ai/ha; for pest or weed control at 125 g/ha: 125 g ai/ha
# From the text: as §2
# [8] = test system: blackgrass (Alopecurus myosuroides); assay: Test D pre-/postemergence plant response; details: Alopecurus myosuroides; for pest or weed control at 16 g/ha: 16 g ai/ha; for pest or weed control at 31 g/ha: 31 g ai/ha; for pest or weed control at 62 g/ha: 62 g ai/ha; for pest or weed control at 125 g/ha: 125 g ai/ha
# From the text: as §2
# [9] = test system: corn (Zea mays); assay: Test D pre-/postemergence plant response; details: Zea mays; for Corn plant response rating (crop injury, 0 = no effect, 100 = complete kill) at 62 g/ha: 62 g ai/ha
# From the text: as §2
# [10] = test system: galium (catchweed bedstraw, Galium aparine); assay: Test D pre-/postemergence plant response; details: Galium, post-emergence; Postemergence, 31 g ai/ha; scale 0 to 100 (0 no effect, 100 complete control); read-out: Galium plant response rating
# From the text: as §2
# [11] = Preemergence, 125 g ai/ha, 0 to 100 scale (0 no effect, 100 complete control)
# [12] = 125 g ai/ha, postemergence, 0 to 100 scale, 0 no effect, 100 complete control
# [13] = Postemergence, 31 g ai/ha, 0 to 100 scale (0 no effect, 100 complete control)
# [14] = post-emergence, Postemergence, scale 0 to 100, 0 no effect, 100 complete control, read-out: Plant response rating, Ryegrass, Italian
# [15] = pre-emergence, Preemergence, scale 0 to 100 (0 no effect, 100 complete control), read-out: Plant response rating, Ryegrass, Italian
# [16] = post-emergence, Postemergence, scale 0 to 100 (0 no effect, 100 complete control), read-out: Barnyardgrass plant response rating
# [17] = post-emergence, Postemergence, scale 0 to 100, 0 no effect, 100 complete control, read-out: Plant response rating, Barnyardgrass
# [18] = pre-emergence, Preemergence, scale 0 to 100 (0 no effect, 100 complete control), read-out: Plant response rating, Barnyardgrass
# [19] = post-emergence, Postemergence, scale 0 to 100 (0 no effect, 100 complete control), read-out: Blackgrass plant response rating
# [20] = post-emergence, Postemergence, scale 0 to 100, 0 no effect, 100 complete control, read-out: Plant response rating, Blackgrass
# [21] = pre-emergence, Preemergence, scale 0 to 100 (0 no effect, 100 complete control), read-out: Plant response rating, Blackgrass
compound,measurement,setting,value
"Fc1cccc(Oc2ncc(Cl)cn2)c1-c1cc(C(F)F)no1 [Compound 144, 5-chloro-2-[2-[3-(difluoromethyl)-5-isoxazolyl]-3-fluorophenoxy]pyrimidine]",pest or weed control at 125 g/ha,"[1]; Echinochloa crus-galli, post-emergence, 240 h, 125 g ai/ha, postemergence, 0 to 100 scale, 0 no effect, 100 complete control, read-out: Plant response rating, Barnyardgrass",100%
same,pest or weed control at 31 g/ha,"[1]; Echinochloa crus-galli, post-emergence, 240 h, Postemergence, 0 to 100 scale (0 no effect, 100 complete control), read-out: Plant response rating, Barnyardgrass",30%
same,pest or weed control at 31 g/ha,"[1]; Echinochloa crus-galli, pre-emergence, 240 h, Preemergence, 0 to 100 scale where 0 is no effect and 100 is complete control, read-out: Plant response rating, Barnyardgrass",80%
same,Barnyardgrass plant response rating,[1]; [11],100
same,"Corn plant response rating (crop injury, 0 = no effect, 100 = complete kill) at 125 g/ha",[2]; [12],90%
same,"Corn plant response rating (crop injury, 0 = no effect, 100 = complete kill) at 31 g/ha",[2]; [13],30%
same,"Foxtail, Giant plant response rating",[3]; [11],100
same,pest or weed control at 125 g/ha,"[3]; Setaria faberi, post-emergence, 240 h, 125 g ai/ha, postemergence, 0 to 100 scale, 0 no effect, 100 complete control, read-out: Plant response rating, Foxtail, Giant",100%
same,pest or weed control at 31 g/ha,"[3]; Setaria faberi, post-emergence, 240 h, Postemergence, 0 to 100 scale (0 no effect, 100 complete control), read-out: Plant response rating, Foxtail, Giant",80%
same,pest or weed control at 31 g/ha,"[3]; Setaria faberi, pre-emergence, 240 h, Preemergence, 0 to 100 scale where 0 is no effect and 100 is complete control, read-out: Plant response rating, Foxtail, Giant",100%
same,pest or weed control at 125 g/ha,"[4]; Amaranthus retroflexus, post-emergence, 240 h, 125 g ai/ha, postemergence, 0 to 100 scale, 0 no effect, 100 complete control, read-out: Plant response rating, Pigweed",100%
same,pest or weed control at 31 g/ha,"[4]; Amaranthus retroflexus, post-emergence, 240 h, Postemergence, 0 to 100 scale (0 no effect, 100 complete control), read-out: Plant response rating, Pigweed",100%
same,pest or weed control at 31 g/ha,"[4]; Amaranthus retroflexus, pre-emergence, 240 h, Preemergence, 0 to 100 scale where 0 is no effect and 100 is complete control, read-out: Plant response rating, Pigweed",100%
same,Pigweed plant response rating,[4]; [11],100
same,plant injury at 125 g/ha,[5]; [12],90%
same,plant injury at 31 g/ha,[5]; [13],30%
same,pest or weed control at 31 g/ha,"[6]; post-emergence, Postemergence, scale 0 to 100 (0 no effect, 100 complete control), read-out: Ryegrass, Italian plant response rating",5%
same,pest or weed control at 62 g/ha,[6]; [14],10%
same,pest or weed control at 125 g/ha,[6]; [14],10%
same,pest or weed control at 125 g/ha,"[6]; pre-emergence, Preemergence, read-out: Plant response rating (scale 0 to 100), Ryegrass, Italian",98%
same,pest or weed control at 16 g/ha,"[6]; pre-emergence, Preemergence, 16 g ai/ha, scale 0 to 100 (0 no effect, 100 complete control), read-out: Plant response rating, Ryegrass, Italian",5%
same,pest or weed control at 31 g/ha,[6]; [15],60%
same,pest or weed control at 62 g/ha,[6]; [15],80%
same,pest or weed control at 16 g/ha,[7]; [16],5%
same,pest or weed control at 31 g/ha,[7]; [16],5%
same,pest or weed control at 62 g/ha,[7]; [17],10%
same,pest or weed control at 125 g/ha,[7]; [17],15%
same,pest or weed control at 125 g/ha,"[7]; pre-emergence, Preemergence, read-out: Plant response rating (scale 0 to 100), Barnyardgrass",100%
same,pest or weed control at 16 g/ha,[7]; [18],70%
same,pest or weed control at 31 g/ha,[7]; [18],80%
same,pest or weed control at 62 g/ha,[7]; [18],100%
same,pest or weed control at 16 g/ha,[8]; [19],5%
same,pest or weed control at 31 g/ha,[8]; [19],15%
same,pest or weed control at 62 g/ha,[8]; [20],15%
same,pest or weed control at 125 g/ha,[8]; [20],75%
same,pest or weed control at 125 g/ha,"[8]; pre-emergence, Preemergence, read-out: Plant response rating (scale 0 to 100), Blackgrass",95%
same,pest or weed control at 16 g/ha,[8]; [21],55%
same,pest or weed control at 31 g/ha,[8]; [21],95%
same,pest or weed control at 62 g/ha,[8]; [21],95%
same,plant injury at 16 g/ha,"[9]; post-emergence, Postemergence, 16 g ai/ha, scale 0 to 100 (0 no effect, 100 complete control), read-out: Corn plant response rating",5%
same,plant injury at 31 g/ha,"[9]; post-emergence, Postemergence, 31 g ai/ha, scale 0 to 100 (0 no effect, 100 complete control), read-out: Corn plant response rating",5%
same,"Corn plant response rating (crop injury, 0 = no effect, 100 = complete kill) at 62 g/ha","[9]; post-emergence, Postemergence, scale 0 to 100, 0 no effect, 100 complete control",10%
same,"Corn plant response rating (crop injury, 0 = no effect, 100 = complete kill) at 125 g/ha","[9]; post-emergence, Postemergence, 125 g ai/ha, scale 0 to 100, 0 no effect, 100 complete control",5%
same,plant injury at 125 g/ha,"[9]; pre-emergence, Preemergence, 125 g ai/ha, read-out: Plant response rating (scale 0 to 100), Corn",65%
same,"Corn plant response rating (crop injury, 0 = no effect, 100 = complete kill) at 16 g/ha","[9]; pre-emergence, Preemergence, 16 g ai/ha, scale 0 to 100 (0 no effect, 100 complete control)",0%
same,"Corn plant response rating (crop injury, 0 = no effect, 100 = complete kill) at 31 g/ha","[9]; pre-emergence, Preemergence, 31 g ai/ha, scale 0 to 100 (0 no effect, 100 complete control)",5%
same,"Corn plant response rating (crop injury, 0 = no effect, 100 = complete kill) at 62 g/ha","[9]; pre-emergence, Preemergence, scale 0 to 100 (0 no effect, 100 complete control)",15%
same,pest or weed control at 31 g/ha,[10],85%
